Source: ChEMBL document CHEMBL3797079, “Synergistic reduction of HIV-1 infectivity by 5-azacytidine and inhibitors of ribonucleotide reductase” (Bioorg Med Chem, 2016)
Activity calls are given as the source filed them. No cut-off for these calls is given here.

Key:
[1] = system: U373-MAGI; assay: Reduction in dCTP level in human U373-MAGI cells at 200 nM preincubated for 2 hrs followed by 5-aza-C addition measured after 4 hrs by LC-MS/MS analysis relative to 5-aza-C; assay type: functional, cell-based
[2] = system: U373-MAGI; assay: Reduction in dGTP level in human U373-MAGI cells at 50 nM after 6 hrs by LC-MS/MS analysis; assay type: functional, cell-based
[3] = system: U373-MAGI; assay: Reduction in dCTP level in human U373-MAGI cells at 200 nM preincubated for 2 hrs followed by 5-aza-dC addition measured after 4 hrs by LC-MS/MS analysis relative to 5-aza-dC; assay type: functional, cell-based
[4] = system: U373-MAGI; assay: Effect on 5-aza-dCTP level in human U373-MAGI cells at 200 nM preincubated for 2 hrs followed by 5-aza-dC addition measured after 4 hrs by LC-MS/MS analysis; assay type: functional, cell-based
[5] = system: Human immunodeficiency virus 1; assay: Antiviral activity against VSV-G pseudotyped HIV-1 NL4-3 infected in human U373-MAGI cells assessed as reduction in viral infectivity at 50 nM incubated for 4 hrs prior to viral infection measured at 72 hrs post infection by flow cytometric analysis; assay type: functional, organism-based
[6] = system: U373-MAGI; assay: Increase in 5-aza-dCTP/dCTP ratio in human U373-MAGI cells at 50 nM preincubated for 2 hrs followed by 5-aza-C addition measured after 4 hrs by LC-MS/MS analysis relative to 5-aza-C; assay type: functional, cell-based
[7] = system: U373-MAGI; assay: Reduction in dGTP level in human U373-MAGI cells at 200 nM after 6 hrs by LC-MS/MS analysis; assay type: functional, cell-based
[8] = system: U373-MAGI; assay: Reduction in dCTP level in human U373-MAGI cells at 50 nM preincubated for 2 hrs followed by 5-aza-dC addition measured after 4 hrs by LC-MS/MS analysis relative to 5-aza-dC; assay type: functional, cell-based
[9] = Reduction in dATP level in human U373-MAGI cells at 50 nM after 6 hrs by LC-MS/MS analysis; assay type: functional; parameters: scale not given: the % may be the effect or the level left
[10] = system: U373-MAGI; assay: Increase in 5-aza-dCTP/dCTP ratio in human U373-MAGI cells at 50 nM preincubated for 2 hrs followed by 5-aza-dC addition measured after 4 hrs by LC-MS/MS analysis relative to 5-aza-dC; assay type: functional, cell-based
[11] = system: U373-MAGI; assay: Reduction in 5-aza-dCTP level in human U373-MAGI cells at 200 nM preincubated for 2 hrs followed by 5-aza-C addition measured after 4 hrs by LC-MS/MS analysis; assay type: functional, cell-based
[12] = system: U373-MAGI; assay: Reduction in 5-aza-dCTP level in human U373-MAGI cells at 50 nM preincubated for 2 hrs followed by 5-aza-C addition measured after 4 hrs by LC-MS/MS analysis; assay type: functional, cell-based
[13] = system: Human immunodeficiency virus 1; assay: Potentiation of 5-Aza-C-induced antiviral activity against VSV-G pseudotyped HIV-1 NL4-3 infected in human U373-MAGI cells assessed as decrease in 5-Aza-C EC50 at 50 nM preincubated for 2 hrs followed by 5-Aza-C addition for 2 hrs and subsequent viral infection measured at 72 hrs post infection by flow cytometric analysis relative to control; assay type: functional
[14] = system: U373-MAGI; assay: Effect on 5-aza-dCTP level in human U373-MAGI cells at 50 nM preincubated for 2 hrs followed by 5-aza-dC addition measured after 4 hrs by LC-MS/MS analysis; assay type: functional, cell-based
[15] = system: U373-MAGI; assay: Reduction in dCTP level in human U373-MAGI cells at 50 nM after 6 hrs by LC-MS/MS analysis; assay type: functional, cell-based
[16] = system: U373-MAGI; assay: Effect on dRGU-TP level in human U373-MAGI cells at 200 nM preincubated for 2 hrs followed by 5-aza-dC addition measured after 4 hrs by LC-MS/MS analysis; assay type: functional, cell-based
[17] = system: U373-MAGI; assay: Reduction in dCTP level in human U373-MAGI cells at 200 nM after 6 hrs by LC-MS/MS analysis; assay type: functional, cell-based
[18] = system: U373-MAGI; assay: Increase in 5-aza-dCTP/dCTP ratio in human U373-MAGI cells at 200 nM preincubated for 2 hrs followed by 5-aza-dC addition measured after 4 hrs by LC-MS/MS analysis relative to 5-aza-dC; assay type: functional, cell-based
[19] = system: U373-MAGI; assay: Reduction in dRGU-TP level in human U373-MAGI cells at 50 nM preincubated for 2 hrs followed by 5-aza-C addition measured after 4 hrs by LC-MS/MS analysis; assay type: functional, cell-based
[20] = system: U373-MAGI; assay: Reduction in dTTP level in human U373-MAGI cells at 50 nM after 6 hrs by LC-MS/MS analysis; assay type: functional, cell-based
[21] = system: U373-MAGI; assay: Increase in 5-aza-dCTP/dCTP ratio in human U373-MAGI cells at 200 nM preincubated for 2 hrs followed by 5-aza-C addition measured after 4 hrs by LC-MS/MS analysis relative to 5-aza-C; assay type: functional, cell-based
[22] = system: U373-MAGI; assay: Reduction in dTTP level in human U373-MAGI cells at 200 nM after 6 hrs by LC-MS/MS analysis; assay type: functional, cell-based
[23] = system: U373-MAGI; assay: Effect on dRGU-TP level in human U373-MAGI cells at 50 nM preincubated for 2 hrs followed by 5-aza-dC addition measured after 4 hrs by LC-MS/MS analysis; assay type: functional, cell-based
[24] = system: U373-MAGI; assay: Reduction in dCTP level in human U373-MAGI cells at 50 nM preincubated for 2 hrs followed by 5-aza-C addition measured after 4 hrs by LC-MS/MS analysis; assay type: functional, cell-based
[25] = system: U373-MAGI; assay: Reduction in dATP level in human U373-MAGI cells at 200 nM after 6 hrs by LC-MS/MS analysis; assay type: functional, cell-based
[26] = system: U373-MAGI; assay: Reduction in dRGU-TP level in human U373-MAGI cells at 200 nM preincubated for 2 hrs followed by 5-aza-C addition measured after 4 hrs by LC-MS/MS analysis; assay type: functional, cell-based
[27] = Cytotoxicity against human U373-MAGI cells at 50 nM measured at 72 hrs by Celltiter-Glo luminescent cell viability assay; assay type: cell-based; settings: 0.05 µM
[28] = biological target: Human immunodeficiency virus type 1 reverse transcriptase (Human immunodeficiency virus 1) (UniProt Q72547); assay: Inhibition of HIV-1 reverse transcriptase assessed as inhibition of primer extension using 5' 32P-end-labeled 17-mer DNA/40-mer RNA as primer/template up to 1 mM measured after 5 mins by PAGE analysis
[29] = system: Human immunodeficiency virus 1; assay: Antiviral activity against VSV-G pseudotyped HIV-1 NL4-3 infected in human U373-MAGI cells assessed as reduction in gag level at 50 or 100 nM measured at 72 hrs post infection by qPCR method; assay type: functional, organism-based
[30] = system: Human immunodeficiency virus 1; assay: Antiviral activity against VSV-G pseudotyped HIV-1 NL4-3 infected in human U373-MAGI cells assessed as reduction in U5-gag level at 5 to 200 nM measured at 6 to 12 hrs post infection by qPCR method; assay type: functional, organism-based
[31] = system: Human immunodeficiency virus 1; assay: Antiviral activity against VSV-G pseudotyped HIV-1 NL4-3 infected in human U373-MAGI cells assessed as reduction in gag level at 5 to 200 nM measured at 6 to 12 hrs post infection by qPCR method; assay type: functional, organism-based
[32] = system: Human immunodeficiency virus 1; assay: Antiviral activity against VSV-G pseudotyped HIV-1 NL4-3 infected in human U373-MAGI cells assessed as reduction in U5-gag level at 50 or 100 nM measured at 72 hrs post infection by qPCR method; assay type: functional, organism-based

Nc1nc(Cl)nc2c1ncn2[C@@H]1O[C@H](CO)[C@@H](O)[C@@H]1F [CLOFARABINE]
Activity [1]: Active
Activity [2]: inactive
Activity [3]: Active
Activity [4]: inactive
Activity [5]: Active
Activity [6]: inactive
Activity [7]: Active
Activity [8]: Active
Activity [9]: 30%
Activity [10]: Active
Activity [11]: Active
Activity [12]: inactive
fold change (FC) [13]: 2.5
Activity [14]: inactive
Activity [15]: inactive
Activity [16]: inactive
Activity [17]: Active
Activity [18]: Active
Activity [19]: inactive
Activity [20]: inactive
Activity [21]: inactive
Activity [22]: inactive
Activity [23]: inactive
Activity [24]: Active
Activity [25]: Active
Activity [26]: Active
Activity [27]: Non-toxic

Nc1ncn([C@H]2C[C@H](O)[C@@H](COP(=O)(O)OP(=O)(O)OP(=O)(O)O)O2)c(=O)n1
inhibition [28]: inactive

Cc1nnc(C(=O)NC(C)(C)c2nc(C(=O)NCc3ccc(F)cc3)c(O)c(=O)n2C)o1
Activity [29]: Active
Activity [30]: inactive
Activity [31]: inactive
Activity [32]: Active
